Experimental findings from patent US20160129122A1, “FATTY ACID ANTIVIRAL CONJUGATES AND THEIR USES” (Catabasis Pharmaceuticals, Inc., priority 2011, published 2016) are described below.

Read-outs that look alike come from different tables or passages of the source.

In experiment [1] the test system is NF-κB. The experiment can be described thus: NF-κB luciferase reporter assay in LPS-stimulated RAW 264.7 macrophages. In kind it is cell-based. As to conditions: Mus musculus. The procedure: RAW 264.7 cells stably expressing a 3×NFkB response element-drive luciferase reporter were seeded into 96 well plates in sera-free medium (Optimem) 18 hours prior to compound application. Compounds of the invention were prepared by first making 100 mM stock solutions in EtOH. […] Cells were then stimulated with 200 ng/ml LPS or vehicle control for 3 hours in the presence of the compounds of the invention. A set of six vehicles was left unstimulated with LPS in order to measure the assay floor. AlamarBlue viability dye (Invitrogen) was added to cells simultaneously with the delivery of LPS (final AlamarBlue concentration of 10%). After the 3 h incubation period with LPS, cell viability was measured by reading fluorescence (excitation 550 nm, emission 595 nm) with a Perkin Elmer Victor V plate reader. Then cell media was aspirated from each well. Luciferase signal was then developed by addition of the Britelite Plus reagent (Perkin Elmer). Luciferase activity was measured with the Perkin Elmer Victor V plate reader. NF-κB activity was expressed as a percent of the vehicle control wells (stimulated with LPS). Compounds were tested at 6 dose point titrations in triplicate to determine IC50 values.

Experiment [2] concerns HIV-1IIIB strain. Description: HIV-1 cytoprotection assay (CEM-SS cells, MTS dye reduction). In kind it is cell-based.
Where [3] appears, read: RAW264.7, read-out: NF-kB inhibitory activity IC50 μM.
Setting [4] is: Human immunodeficiency virus 1, IIIB, CEM-SS, 144 h, read-out: IC50 HIV-1IIIB strain (nM).
Where [5] appears, read: RAW264.7, RAW 264.7 cells with 3×NFkB response element luciferase reporter, 2 h pretreatment, 200 ng/ml LPS for 3 h, read-out: NF-kB inhibitory activity IC50.
The mark [6] stands for this setting: Human immunodeficiency virus 1, 144 h, CEM-SS cells, HIV-1 IIIB strain, 6 days incubation, cytoprotection by MTS, read-out: IC50 HIV-1IIIB strain.

Take `CC/C=C\C/C=C\C/C=C\C/C=C\C/C=C\C/C=C\CCC(=O)NCCNP(=O)(OC[C@@H]1O[C@H](n2ccc(N)nc2=O)CS1)Oc1ccccc1` (stereo partly drawn) [II-67, ((2R,5S)-5-(4-amino-2-oxopyrimidin-1(2H)-yl)-1,3-oxathiolan-2-yl)methyl phenyl (2-((4Z,7Z,10Z,13Z,16Z,19Z)-docosa-4,7,10,13,16,19-hexaenamido)ethyl)phosphoramidate]: the IC50 was less than 50 µM in experiment [1] (setting [3]) and less than 100 nM in experiment [2] (setting [4]).

With `CC/C=C\C/C=C\C/C=C\C/C=C\C/C=C\C/C=C\CCC(=O)NCCOCCNC(=O)OC[C@H]1OC(n2cc(C)c(=O)[nH]c2=O)C[C@@H]1N=[N+]=[N-]` (stereo partly shown) [Compound V-8], the half-maximal inhibitory concentration (IC50) in experiment [1] (setting [5]) was in the range of 50 to 200 µM. Regarding `C=C1[C@H](COP(=O)(NCCNC(=O)CCC/C=C\C/C=C\C/C=C\C/C=C\C/C=C\CC)OC)[C@@H](O)C[C@@H]1n1cnc2c(=O)nc(N)[nH]c21` (stereo partly drawn) [II-48, ((1R,3S,5S)-3-(2-amino-6-oxo-3H-purin-9(6H)-yl)-5-hydroxy-2-methylenecyclopentyl)methyl methyl (2-((5Z,8Z,11Z,14Z,17Z)-icosa-5,8,11,14,17-pentaenamido)ethyl)phosphoramidate], the IC50 in experiment [1] (setting [3]) lay in the range of 50 to 200 µM. On the same count and under the same terms, to `CC(C)CN(C[C@@H](O)[C@H](Cc1ccccc1)NC(=O)O[C@H]1CO[C@H]2OCC[C@H]21)S(=O)(=O)c1ccc(N)cc1` [Darunavir, darunavir, reference compound] belongs more than 200 µM. With `CC/C=C\C/C=C\C/C=C\C/C=C\C/C=C\C/C=C\CCC(=O)NCCNC(=O)OC[C@@H]1OC(n2ccc(N)nc2=O)CS1` (stereo partly drawn) [Compound V-21, ((2R,5S)-5-(4-amino-2-oxopyrimidin-1(2H)-yl)-1,3-oxathiolan-2-yl)methyl(2-((4Z,7Z,10Z,13Z,16Z,19Z)-docosa-4,7,10,13,16,19-hexaenamido)ethyl)carbamate], the results for the IC50 in experiment [1] (setting [3]) and in experiment [2] (setting [4]) were 50 to 200 µM and less than 100 nM, respectively. As to `CC/C=C\C/C=C\C/C=C\C/C=C\C/C=C\C/C=C\CCC(=O)NCCNC(=O)OC[C@H]1OC(n2cc(C)c(=O)[nH]c2=O)C[C@@H]1N=[N+]=[N-]` (stereo partly shown) [Compound V-5], the IC50 is less than 50 µM in experiment [1] (setting [5]) and more than 100 nM in experiment [2] (setting [6]). On to `CC/C=C\C/C=C\C/C=C\C/C=C\C/C=C\C/C=C\CCC(=O)Nc1ccn(C2CS[C@H](CO)O2)c(=O)n1` (stereo partly shown) [Compound V-18], for which the IC50 in experiment [1] (setting [5]) is more than 200 µM; in experiment [2] (setting [6]), less than 100 nM.

In the case of `CC/C=C\C/C=C\C/C=C\C/C=C\C/C=C\C/C=C\CCC(=O)NCCNP(=O)(OC[C@H]1OC(n2cc(C)c(=O)[nH]c2=O)C[C@@H]1N=[N+]=[N-])Oc1ccccc1` (stereo partly shown) [II-25], the IC50 in experiment [1] (setting [3]) was less than 50 µM; in experiment [2] (setting [4]), less than 100 nM. Regarding `CC/C=C\C/C=C\C/C=C\C/C=C\C/C=C\CCCC(=O)Nc1ccc(S(=O)(=O)N(CC(C)C)C[C@@H](O)[C@H](Cc2ccccc2)NC(=O)O[C@H]2CO[C@H]3OCC[C@H]32)cc1` [VII-2, (3R,3aS,6aR)-hexahydrofuro[2,3-b]furan-3-yl((2S,3R)-3-hydroxy-4-(4-((5Z,8Z,11Z,14Z,17Z)-icosa-5,8,11,14,17-pentaenamido)-N-isobutylphenylsulfonamido)-1-phenylbutan-2-yl)carbamate], in experiment [2] (setting [6]), the IC50 was less than 100 nM. In the case of `CC/C=C\C/C=C\C/C=C\C/C=C\C/C=C\C/C=C\CCC(=O)Nc1ccc(S(=O)(=O)N(CC(C)C)C[C@@H](O)[C@H](Cc2ccccc2)NC(=O)O[C@H]2CO[C@H]3OCC[C@H]32)cc1` [VII-1, (3R,3aS,6aR)-hexahydrofuro[2,3-b]furan-3-yl((2S,3R)-4-(4-((4Z,7Z,10Z,13Z,16Z,19Z)-docosa-4,7,10,13,16,19-hexaenamido)-N-isobutylphenylsulfonamido)-3-hydroxy-1-phenylbutan-2-yl)carbamate], the results for the IC50 in experiment [1] (setting [3]) and in experiment [2] (setting [4]) were 50 to 200 µM and less than 100 nM, respectively. As for `CC/C=C\C/C=C\C/C=C\C/C=C\C/C=C\CCCC(=O)NCCNP(=O)(OC)OC[C@@H]1O[C@H](n2ccc(N)nc2=O)CS1` (stereo partly drawn) [II-70, ((2R,5S)-5-(4-amino-2-oxopyrimidin-1(2H)-yl)-1,3-oxathiolan-2-yl)methyl methyl (2-((5Z,8Z,11Z,14Z,17Z)-icosa-5,8,11,14,17-pentaenamido)ethyl)phosphoramidate], the IC50 in experiment [1] (setting [3]) fell in the range of 50 to 200 µM.

On to `CC/C=C\C/C=C\C/C=C\C/C=C\C/C=C\CCCC(=O)NCCNP(=O)(OC)OC[C@H]1OC(n2cc(C)c(=O)[nH]c2=O)C[C@@H]1N=[N+]=[N-]` (stereo partly shown) [II-30], for which the IC50 in experiment [1] (setting [3]) was less than 50 µM; in experiment [2] (setting [4]) it was more than 100 nM.
